# In article PMC6127852 (Journal of Enzyme Inhibition and Medicinal Chemistry, 2018):
# Legend:
# calf thymus ctDNA = assay: UV–Vis titration with ctDNA (Scatchard); assay type: binding; details: PBS, pH 7; for Hypochromic effect H/%, ctDNA: UV–Vis titration, calculated by Scatchard equation; for log Ks, ctDNA: binding constant, Scatchard
# Protocol: (§1) Polynucleotides were purchased as follows: polyG–polyC, polyA–polyU (Sigma-Aldrich, St. Louis, MO), calf thymus ctDNA (Aldrich). Polynucleotides were dissolved in PBS buffer, I = 0.05 mol dm^−3, pH 7.0. The calf thymus ctDNA was additionally sonicated and filtered through a […] filter. The polynucleotide concentration was spectroscopically determined as the concentration of nucleobases.
# (§2) All UV–Vis absorbance measurements were conducted on a Perkin Elmer Lambda 25 spectrophotometer (Perkin Elmer, Waltham, MA). A quartz cell with a 1 cm path length was used for all absorbance studies. Compound stock solutions were 1 mM. The DNA/RNA at increasing ratios was then titrated into the compound buffer solution (1.48 × 10^−5 mol dm^−3) and the corresponding absorption spectra were recorded under the same conditions. All data were graphed and analysed using Origin software version 9.0 (OriginLab Corporation, Northampton, MA). The stability constants (Ks) and [bound compound]/[polynucleotide phosphate] ratios (n) were calculated according to the Scatchard Equation[63] ^, [64]. Values for Ks and n given in Table 1 all have satisfying correlation coefficients (0.99).
# (§3) The binding constants logKs and the density of the binding sites n were calculated using Scatchard plot analysis. In addition, the binding constants Ks for compounds 8b and 8e were calculated only for titration data taken at the r ≥ 0.1, because below that ratio changes in absorption maxima were too small for accurate calculation (ΔA ≤ 0.04) (Table 1). The binding constants Ks and ratios n obtained by processing UV–Vis titration data using the Scatchard equation are summarised in Table 1.
# polyA-polyU [1] = assay: UV–Vis titration with polyA-polyU (Scatchard); assay type: binding; details: PBS, pH 7; for Hypochromic effect H/%, polyA-polyU: UV–Vis titration, calculated by Scatchard equation; for log Ks, polyA-polyU: binding constant, Scatchard
# Protocol: as §1, §2, §3
# polyC-polyG = assay: UV–Vis titration with polyC-polyG (Scatchard); assay type: binding; details: PBS, pH 7; for log Ks, polyC-polyG: binding constant, Scatchard
# Protocol: as §1, §2, §3
# ctDNA = assay: Thermal melting (ΔTm) of ctDNA; assay type: binding, calf; details: PBS, pH 7; for ΔTm, ctDNA, r = 0.3: r = [compound]/[polynucleotide] 0.3, error ±0.5 °C
# Protocol: (§4) T m experiments were conducted with a Perkin Elmer Lambda 25 spectrophotometer in 1 cm quartz cuvettes. The absorbance of the DNA/RNA-compound complex was monitored at 260 nm as a function of temperature. The absorbance of the ligands was subtracted from every curve, and the absorbance scale was normalised. The ΔT m values were calculated by subtracting T m of the free nucleic acid from T m of the complex. Every reported ΔT m value was the average of at least two measurements. The error of ΔT m is ±0.5 °C. All data were graphed and analysed using Origin software version 9.0.
# (§5) Denaturation experiments were carried out at different amounts of the compounds (r = 0.1, 0.3, 0.5, and 0.7 eq; r = [compound]/[polynucleotide]) with ctDNA and polyA-polyU.
# polyA-polyU [2] = assay: Thermal melting (ΔTm) of polyA-polyU; assay type: binding; details: for ΔTm, polyA-polyU, r = 0.1: PBS, pH 7; for ΔTm, polyA-polyU, r = 0.3 / ΔTm, polyA-polyU, r = 0.5: first melting midpoint
# Protocol: as §4, §5
# S. aureus MRSA = assay: Broth microdilution MIC, MRSA clinical strain; assay type: cell-based; details: Staphylococcus aureus, antibiotic-resistant clinical strain
# Protocol: (§6) The compounds were evaluated for their in vitro anti-bacterial activity against Gram-positive bacteria: S. aureus (ATCC 25923), MRSA, methicillin-sensitive S. aureus (MSSA), E. faecalis, vancomycin-resistant E. faecium (VREF), and Gram-negative bacteria: E. coli (ATCC 25925), P. aeruginosa (ATCC 27853), A. baumannii (ATCC 19606) and ESBL-producing K. pneumoniae (ATCC 27736). Standard broth microdilution method as recommended in guidelines of Clinical and Laboratory Standards Institute[61] ^, [65] ^, [66] was applied and the minimum inhibitory concentration (MIC) of compounds was tested. In short, testing was performed in U-bottomed 96-well sterile plastic microdilution trays (Falcon 3077, Becton Dickinson Labware, Franklin Lakes, NJ) in cation (Ca^2+ and Mg^2+) adjusted Mueller–Hinton broth medium (Becton Dickinson and Co., Cockeysville, MD). All testings were performed in triplicate.
# S. aureus MSSA = assay: Broth microdilution MIC, MSSA clinical strain; assay type: cell-based; details: Staphylococcus aureus
# Protocol: as §6
# E. faecium VRE = assay: Broth microdilution MIC, VRE clinical strain; assay type: cell-based; details: Enterococcus faecium
# Protocol: as §6
# S. aureus ATCC 25923 = assay: Broth microdilution MIC, S. aureus ATCC 25923; assay type: cell-based; details: Staphylococcus aureus, ATCC25923; Table S2
# Protocol: as §6
# (§7) The in vitro anti-bacterial activity of 5-amidinobenzimidazoles 7a–7e, 8a–8e, and 9a–9e was tested against Gram-positive bacteria including S. aureus (ATCC 25923), Enterococcus faecalis (ATCC 29212), and Gram-negative bacteria including E. coli (ATCC 25925), K. pneumoniae (ATCC 700803), P. aeruginosa (ATCC 27853), and Acinetobacter baumannii (ATCC 19606).
# E. faecalis ATCC 29212 = assay: Broth microdilution MIC, E. faecalis ATCC 29212; assay type: cell-based; details: Enterococcus faecalis, ATCC29212; Table S2
# Protocol: as §6, §7
# E. coli ATCC 25925 = assay: Broth microdilution MIC, E. coli ATCC 25925; assay type: cell-based; details: Escherichia coli, ATCC25925; Table S2
# Protocol: as §6, §7
# K. pneumonia ATCC 700803 = assay: Broth microdilution MIC, K. pneumoniae ATCC 700803; assay type: cell-based; details: Klebsiella pneumoniae, ATCC700803; Table S2
# Protocol: as §6, §7
# P. aeruginosa ATCC 27853 = assay: Broth microdilution MIC, P. aeruginosa ATCC 27853; assay type: cell-based; details: Pseudomonas aeruginosa, ATCC27853; Table S2
# Protocol: as §6, §7
# A. baumannii ATCC 19606 = assay: Broth microdilution MIC, A. baumannii ATCC 19606; assay type: cell-based; details: Acinetobacter baumannii, ATCC19606; Table S2
# Protocol: as §6, §7
# [3] = system: bloodstream form T. brucei (strain 221); assay: Anti-trypanosomal screening, resazurin; assay type: cell-based; details: Trypanosoma brucei, mean of triplicate ± SEM
# Protocol: Bloodstream form T. brucei (strain 221) were cultured in modified Iscove’s medium, as outlined[67] and trypanocidal assays were performed using 96-well microtitre plates. […] Resazurin was added after 48 h, the plates incubated for a further 16 h, and then read in a Spectramax plate reader (Molecular Devices Corporation, San Jose, CA). The data were analysed using GraphPad Prism (GraphPad, La Jolla, CA). Each drug concentration was tested in triplicate.
# [4] = system: polyA-polyU (RNA, polymer) A/U; assay: UV-Vis titration, Scatchard; details: PBS; for log Ks: I = 0.05 M (Table 1 says I = 0.015 M), cations not specified, I = 0.015 M (Methods: 0.05 M)
# [5] = system: polyG-polyC (polyC-polyG) (RNA, polymer) G/C; assay: UV-Vis titration, Scatchard; details: PBS; for log Ks: I = 0.05 M (Table 1 says I = 0.015 M), cations not specified, I = 0.015 M (Methods: 0.05 M)
# [6] = system: polyA-polyU (RNA, polymer) A/U; assay: UV melting at 260 nm; details: PBS, I = 0.05 M, cations not specified, pH 7, r = 0.3 [compound]/[polynucleotide]
# [7] = pH 7, changes too small for accurate calculation, compound 14.8 µM
smiles,measurement,setting,value
CC(C)NC(=N)c1ccc2[nH]c(-c3ccc(OCc4cn(Cc5ccccc5)nn4)cc3)nc2c1 [Compound 8d],"Hypochromic effect H/%, ctDNA",calf thymus ctDNA,41.2%
same,"log Ks, ctDNA",calf thymus ctDNA,5.93
same,"Hypochromic effect H/%, polyA-polyU",polyA-polyU [1],53.8%
same,"log Ks, polyA-polyU",polyA-polyU [1],6.13
same,"log Ks, polyC-polyG",polyC-polyG,5.54
same,"ΔTm, ctDNA, r = 0.5",ctDNA,3.32 °C
same,"ΔTm, ctDNA, r = 0.7",ctDNA,3.63 °C
same,"ΔTm, ctDNA, r = 0.3",ctDNA,1.76 °C
same,"ΔTm, polyA-polyU, r = 0.1",polyA-polyU [2],0.91 °C
same,"ΔTm, polyA-polyU, r = 0.3",polyA-polyU [2],0.51 °C
same,"ΔTm, polyA-polyU, r = 0.5",polyA-polyU [2],0.72 °C
same,MIC,S. aureus MRSA,32 µg/mL
same,MIC,S. aureus MSSA,64 µg/mL
same,MIC,E. faecium VRE,64 µg/mL
same,MIC,S. aureus ATCC 25923,64 µg/mL
same,MIC,E. faecalis ATCC 29212,128 µg/mL
same,MIC,E. coli ATCC 25925,> 256 µg/mL
same,MIC,K. pneumonia ATCC 700803,> 256 µg/mL
same,MIC,P. aeruginosa ATCC 27853,> 256 µg/mL
same,MIC,A. baumannii ATCC 19606,> 256 µg/mL
same,IC50,[3],12.9 ± 0.2 µM
same,IC90,[3],21.6 ± 0.4 µM
same,log Ks,"[4]; pH 7, per base",6.13
same,log Ks,"[5]; pH 7, n fixed, per base",5.54
CC(C)NC(=N)c1ccc2nc(-c3ccc(OCc4cn(CSc5ccccc5)nn4)cc3)[nH]c2c1,ΔTm,"[6]; error ±0.5 (shift within error), per base",0.23 °C
same,log Ks,"[4]; pH 7, per base",5.96
same,log Ks,"[5]; pH 7, per base",7.20
"CC1(C)S[C@@H]2[C@H](NC(=O)[C@H](N)c3ccccc3)C(=O)N2[C@H]1C(=O)O [Ampicillin, ampicillin, reference compound]",MIC,S. aureus MRSA,4 µg/mL
same,MIC,S. aureus MSSA,1 µg/mL
same,MIC,E. faecium VRE,1 µg/mL
same,MIC,S. aureus ATCC 25923,1 µg/mL
same,MIC,E. faecalis ATCC 29212,2 µg/mL
"O=C(O)c1cn(C2CC2)c2cc(N3CCNCC3)c(F)cc2c1=O [Ciprofloxacin, ciprofloxacin, reference compound]",MIC,E. coli ATCC 25925,0.004 µg/mL
same,MIC,K. pneumonia ATCC 700803,0.06 µg/mL
same,MIC,P. aeruginosa ATCC 27853,0.5 µg/mL
same,MIC,A. baumannii ATCC 19606,0.06 µg/mL
COc1ccc(-n2cc(COc3ccc(-c4nc5ccc(C6=NCCN6)cc5[nH]4)cc3)nn2)cc1,ΔTm,"[6]; error ±0.5, biphasic, second midpoint 36.08, per base",2.67 °C
same,log Ks,"[4]; pH 7, n fixed, per base",5.46
same,binding,[5]; [7],weak
"CNC(C)C1CCC(N)C(OC2C(N)CC(N)C(OC3OCC(C)(O)C(NC)C3O)C2O)O1 (stereo not drawn) [Gentamicin, gentamicin, reference compound]",MIC,S. aureus MRSA,0.25 µg/mL
same,MIC,S. aureus MSSA,0.125 µg/mL
same,MIC,E. faecium VRE,0.25 µg/mL
same,MIC,S. aureus ATCC 25923,0.125 µg/mL
same,MIC,E. faecalis ATCC 29212,8 µg/mL
CC(C)NC(=N)c1ccc2[nH]c(-c3ccc(OCc4cn(-c5ccccc5)nn4)cc3)nc2c1 [Compound 8a],"Hypochromic effect H/%, ctDNA",calf thymus ctDNA,41.0%
same,"log Ks, ctDNA",calf thymus ctDNA,6.17
same,"Hypochromic effect H/%, polyA-polyU",polyA-polyU [1],46.5%
same,"log Ks, polyA-polyU",polyA-polyU [1],5.87
same,"Hypochromic effect H/%, polyC-polyG","polyC-polyG; UV–Vis titration, calculated by Scatchard equation",5.86%
same,"log Ks, polyC-polyG",polyC-polyG,6.17
same,"ΔTm, ctDNA, r = 0.5",ctDNA,3.94 °C
same,"ΔTm, ctDNA, r = 0.7",ctDNA,4.25 °C
same,"ΔTm, ctDNA, r = 0.3",ctDNA,3.35 °C
same,"ΔTm, polyA-polyU, r = 0.1",polyA-polyU [2],0.32 °C
same,"ΔTm, polyA-polyU, r = 0.3",polyA-polyU [2],0.64 °C
same,"ΔTm, polyA-polyU, r = 0.5",polyA-polyU [2],1.11 °C
same,MIC,S. aureus MRSA,8 µg/mL
same,MIC,S. aureus MSSA,128 µg/mL
same,MIC,E. faecium VRE,128 µg/mL
same,MIC,S. aureus ATCC 25923,128 µg/mL
same,MIC,E. faecalis ATCC 29212,256 µg/mL
same,MIC,E. coli ATCC 25925,256 µg/mL
same,MIC,K. pneumonia ATCC 700803,> 256 µg/mL
same,MIC,P. aeruginosa ATCC 27853,> 256 µg/mL
same,MIC,A. baumannii ATCC 19606,> 256 µg/mL
same,IC50,[3],7.1 ± 0.7 µM
same,IC90,[3],16.7 ± 1.2 µM
same,ΔTm,"[6]; error ±0.5, per base",0.64 °C
same,log Ks,"[4]; pH 7, per base",5.87
same,log Ks,"[5]; pH 7, n fixed, per base",6.17
COc1ccc(-n2cc(COc3ccc(-c4nc5ccc(C(=N)N)cc5[nH]4)cc3)nn2)cc1,binding,[4]; [7],weak
same,log Ks,"[5]; pH 7, per base",6.27
